Assays:
L2987 tumor xenograft = experiment: In vivo antitumor testing, L2987 tumor xenograft model; set-up: species or system mouse; settings: L2987, nude mice, 100 mg/kg 1 qd×26
Procedure: In this example, the Table 2 biomarkers were identified using mouse xenograft tumor models that were treated with the example VEGFR-2 inhibitor.
Tumors were propagated in nude mice as subcutaneous (sc) transplants using tumor fragments obtained from donor mice. Tumor passage occurred approximately every two to four weeks. Tumors were then allowed to grow to the pre-determined size window (usually between 100-200 mg, tumors outside the range were excluded) and animals were evenly distributed to various treatment and control groups. Animals were treated with the example VEGFR-2 inhibitor (100 mg/kg 1 qd×26). Treated animals were checked daily for treatment related toxicity/mortality. […] Tumor response was determined by measurement of tumors with a caliper twice a week, until the tumors reached a predetermined target size of 1 gm or became necrotic. […]
Antitumor activity was determined in terms of primary tumor growth inhibition. This was determined in two ways: (i) calculating the relative median tumor weight (MTW) of treated (T) and control (C) mice at various time points (effects were expressed as % T/C); and (ii) calculating the tumor growth delay (T−C value), defined as the difference in time (days) required for the treated tumors (T) to reach a predetermined target size compared to those of the control group (C). […]

[1] = system: Collagen type IV (COL4A1); experiment: Immunohistochemistry of xenograft tumors; assay type: in vivo, mouse; settings: treated xenograft tumors relative to un-treated tumors
Procedure: (§1) Tumors were propagated in nude mice as subcutaneous (sc) transplants using L2987 and HCT-116 cancer cell lines. Tumor passage occurred approximately every two to four weeks. Tumors were then allowed to grow to the pre-determined size window (100-200 mm^3, tumors outside the range were excluded) and animals were evenly distributed to various treatment and control groups. Animals were treated with the example VEGFR-2 inhibitor (100 mg/kg 1 qd×14 days). Treated animals were checked daily for treatment related toxicity/mortality. Each group of animals was weighed before the initiation of treatment (Wt1) and then again following the last treatment dose (Wt2). The difference in body weight (Wt2−Wt1) provided a measure of treatment-related toxicity. Tumor response was determined by measurement of tumors with a caliper twice a week, until the tumors reached a predetermined target size. Animals that were distributed to various treatment and control groups during the study were eventually sacrificed to obtain tumor and blood samples for genomic and protein analysis.
(§2) Tissue specimens collected for IHC were fixed by using 10% formalin. After fixation, the chemical fixative was discarded and the specimens were submerged in 70% ethanol before being embedded in paraffin blocks. Five micron tissue sections were cut from each block and placed on positively charged microscope slides. The tissue slides were de-paraffined by immersing in xylene. The slides were re-hydrated in 100% ethanol, 95% ethanol, and 70% ethanol. After re-hydration, the slides were washed several times with deionized water at room temperature. Multiple antigen retrieval conditions (Citra, Citra Plus, and AR10) were tested by use of the BioGenex EZ-retriever microwave to determine the best conditions. Staining optimization was performed in an automated BioGenex i6000 IHC system for each of the candidate marker antibodies independently. Both treated and un-treated xenografts were stained in the same run to minimize slide to slide variations. […]

[2] = system: angiotensin receptor-like 1 (AGTRL1); experiment: Immunohistochemistry of xenograft tumors; assay type: in vivo, mouse; settings: treated xenograft tumors relative to un-treated tumors
Procedure: as §1, §2

[3] = system: complement component 1, q subcomponent, receptor 1 (C1qR1); experiment: Immunohistochemistry of xenograft tumors; assay type: in vivo, mouse; settings: treated xenograft tumors relative to un-treated tumors
Procedure: as §1, §2

[4] = system: advanced or metastatic solid tumors; experiment: Clinical response in phase I dose escalation study CA182-002; assay type: in vivo, human; settings: 600 mg/day
Procedure: Blood samples (plasma) for ELISA analysis were obtained from Bristol-Myers Squibb Co. sponsored clinical study CA182-002, which is a phase I dose escalation study to determine the safety, pharmacokinetic, and pharmacodynamics of the example VEGFR-2 inhibitor in patients with advanced or metastatic solid tumors. Blood samples were drawn from patients at screening, pre-dose, and post-dose at 4 hours, Day 1, Day 8, Day 26, and end of treatment. Approximately 60 ml of blood was collected for the protocol specific sampling. Detailed instructions regarding the collection, processing, labeling, handling, storage, and shipment of the specimens were provided in the CA182-002 Laboratory Manual.
Collagen type IV ELISA assays were also examined to see if collagen type IV was useful as a biomarker for clinical response to the example VEGFR-2 inhibitor. […] The reduction in collagen type IV blood levels correlated with clinical evidence of anti-tumor activity. […] Overall, the clinical results from these two evaluable patients confirm the pre-clinical data and indicate that collagen type IV ELISA assay is a clinically useful method to monitor response to a VEGFR-2 modulator(s) such as the example VEGFR-2 inhibitor.

Structure (SMILES): Cc1cc2c(F)c(Oc3ncnn4cc(OC[C@@H](C)OC(=O)[C@H](C)N)c(C)c34)ccc2[nH]1 [example VEGFR-2 inhibitor, [(1R),2S]-2-Aminopropionic acid 2-[4-(4-fluoro-2-methyl-1H-indol-5-yloxy)-5-methylpyrrolo[2,1-f][1,2,4]triazin-6-yloxy]-1-methylethyl ester]
- efficacy in mouse xenograft tumor model (L2987 tumor xenograft): highly responsive
- IHC staining of Collagen type IV (COL4A1) around tumor blood vessels following treatment [1]: negative or lesser degree of staining
- IHC staining of angiotensin receptor-like 1 (AGTRL1) around tumor blood vessels following treatment [2]: negative or lesser degree of staining
- IHC staining of C1qR1 around tumor blood vessels following treatment [3]: negative or lesser degree of staining
- clinical response ([4]; another patient): did not achieve a clinical response
- time patient was on therapy ([4]; another patient, no clinical response): 32 days
- clinical response ([4]; one patient with ampulla of vater carcinoma): partial response
- time patient remained on therapy ([4]; one patient with ampulla of vater carcinoma, partial response): 126 days

Source: patent US8067189B2, “Methods for determining sensitivity to vascular endothelial growth factor receptor-2 modulators by measuring the level of collagen type IV” (Bristol-Myers Squibb Company, priority 2005, dated 2011)
